Experiments:
[1] = test system: VEGF-induced neoangiogenesis; assay: Rat corneal micropocket assay, VEGF disks; type: in vivo; conditions: 160 mg/kg orally by gavage once per day, days 1 through 10; Fisher 344 female rats
Experimental: Rat Corneal Micropocket Assay
Fisher 344 female rats (145–155 grams; Taconic, Inc., Germantown, N.Y.) were anesthesized with acepromazine (2.5 mg/kg, ip) 20 minutes prior to initiation of 2–3% isoflurane/oxygen inhalation. The body temperature was maintained with a circulating hot water pad. The surgery was performed using an ophthalmic operating microscope (OMS.75 Operating Microscope, TopCon Corporation, Japan). A scalpel blade (#15) was used to make a vertical half-thickness linear corneal incision just lateral to the center of the eye. […] A pocket was formed in the cornea using blunt dissection with corneal scissors (Roboz, Rockville, Md.). Nitrocellulose filters ([…], Millipore, Bedford, Mass.) were cut into small disks using a 20 gauge needle punch. The disks were soaked in 2 μl of human VEGF solution ([…]; R&D Systems) or human basic fibroblast growth factor (0.20 μg/μl; R&D Systems) for 10 minutes on ice. Using forceps, the disks impregnated with the angiogenic factor (VEGF or bFGF) were inserted into the corneal pocket so that the disk is firmly covered with corneal epithelium. […] The images were analyzed by converting the area of interest to high contrast black and white reversed image and counting the bright pixels as a determination of the vascular area. […]

[2] = test system: MURINE SQUAMOUS LUNG LC-12; assay: Early stage murine squamous lung LC-12 (Table VI); type: in vivo; conditions: Balb/C female mice
Description: Conventional Murine Tumor and Human Tumor Xenouraft Assays
Briefly, the murine tumor or human xenograph was implanted subcutaneously using either 12-gauge trocar implants or counted number of cells. The location for the trocar insertion is midway between the axillary and inguinal region along the side of the mouse. The trocar is slipped approximately ¾ of an inch subcutaneously up toward the axilla before discharging the tumor fragment, and pinching the skin as the trocar is removed., Alternatively, human tumor cells prepared from a […] of donor tumors (5×10^6 cells) were implanted subcutaneously in a hind-leg of a male or female nude mouse (Charles River). Either a test compound in vehicle or vehicle alone was administered by intravenous bolus injection (iv), intraperitoneal injection (ip), or oral gavage (po). Each treatment group, as well as a group of untreated control animals, consisted of five animals per group in each experiment. […] Body weights were taken as a general measure of toxicity. The subcutaneous tumor data were analyzed by determining the median tumor weight for each treatment group over the course of the experiment and calculating the tumor growth delay as the difference in days for the treatment versus the control tumors to reach a volume of either 500 or 1000 mm^3.
The parameters measured in each experiment are summarized in the following paragraphs. • Tumor Weight(mg)=(a×b^2)/2 where a=tumor length (mm) and b=tumor width (mm). • Tumor Growth Delay=T−C where T is the median time (days) required for the treatment group tumors to reach a predetermined size, and C is the median time (days) for the control group tumors to reach the same size. Tumor-free survivors are excluded from this calculation, and are tabulated separately (Tumor Free).
The median tumor weight of each group is determined (including zeros). The T/C value in percent is an indication of antitumor effectiveness.

[3] = total dose 640 mg/kg: 160 mg/kg/injection IV on days 4, 6, 8, and 10
[4] = total dose 1391 mg/kg: 107 mg/kg/injection IV every second day, days 4 to 28

O=C(NS(=O)(=O)c1ccccc1)c1ccc(Cl)cc1Cl [Example 110, N-[2,4-dichlorobenzoyl]phenylsulfonamide]
inhibition of VEGF-induced neoangiogenesis [1]: very effective inhibitor | % BODY WT LOSS AT NADIR [2, 3]: 0% | % T/C MASS [2, 3]: 14% | ACTIVITY RATING [2, 3]: ++ (1.3–1.9) | DRUG DEATHS [2, 3]: 0/4 | GROWTH DELAY [2, 3]: 12.5 days | LOG KILL [2, 3]: 1.7 | TUMOR FREE AT DAY 174 [2, 3]: 0/4 | % BODY WT LOSS AT NADIR [2, 4]: +1.6% | % T/C MASS [2, 4]: 20% | ACTIVITY RATING [2, 4]: +++ (2.0–2.8) | DRUG DEATHS [2, 4]: 0/5 | GROWTH DELAY [2, 4]: 15.5 days | LOG KILL [2, 4]: 2.1 | TUMOR FREE AT DAY 174 [2, 4]: 0/5

From patent US7183320B2, “Benzoylsulfonamides and sulfonylbenzamidines for use as antitumour agents” (Eli Lilly and Company, priority 2002, dated 2007)
